“Also recorded” adds a separate entry of the source. Where a SMILES comes first, the peptide text is derived from it.
Key:
[1] = test system: liver; assay: ECM (matrix) movement into liver wounds after electroporation injury, NHS-FITC matrix labelling; format: in vivo, mouse
[2] = test system: liver tissue; assay: In vivo effects on ECM movement in the presence of modulators (FIG. 20); details: FIG. 20, modulator administered after injury
Protocol: An injury within liver tissue was generated, a potential modulator was administered and ECM movement was monitored.

[3] = test system: peritoneum; assay: ECM (matrix) movement into peritoneal wounds after laparotomy injury, NHS-FITC matrix labelling; format: in vivo, mouse; details: inhibitors 10 μM i.p. 2 hours before surgery, organs harvested after 24 h, FITC in wound lysates
[4] = test system: pleural fluid matrix movement into lungs; assay: Bleomycin-induced lung fibrosis model with pleural matrix fate tracing; format: in vivo, mouse
Protocol: The inventors generated a labelling solution by mixing 5 μl NHS-ester (25 mg/ml) with 5 μl of 100 mM pH 9.0 sodium bicarbonate buffer, combining with 40 μl PBS to a total volume of 50 μl. The labelling solution was applied intra pleural under isoflurane anaesthesia by using a 30G cannula. The oropharyngeal administration of bleomycin for the induction of pulmonary fibrosis was carried out in an antagonistic anesthesia in C57BL/6J mice of both sexes (6-8 weeks age). After the toe-pinch reflex was absent, the mouse was placed on the incisors of the upper jaw and thus kept in an upright position. The tongue was carefully fixed and held to the side with tweezers while the nose of the animal is covered with tweezers. By keeping the nose closed, the mouse was forced to breathe through the mouth. With the help of a pipette, bleomycin was dissolved in a dosage of 2 units/kg KGW in 80 μl PBS carefully into the throat. As soon as the animal has inhaled the solution, it was tansferred to a Hot plate (duration approx. 30 to 60 seconds). After antagonization animals were housed for 14 days. Nintedanib was added 1 hour before bleomycin installation and every other day intra peritoneal 10 μM. To directly answer if Nintedanib's anti-fibrotic actions are mediated through its effects on fluid matrix movements, the Inventors labeled fluid matrix reservoirs on lung surfaces as before, induced lung inflammation and fibrosis with Bleomycin, and followed these mice with daily injections of Nintedanib (FIG. 44B). […] Both lung alveoli and major blood vessels lacked accretions of labeled fibers.

[5] = test system: fascia fibroblasts; assay: Fascia invasion assay (ex vivo fascia 3D Matrigel culture); format: cell-based, mouse
Protocol: In order to observe the dynamic changes of fascia fibroblasts, the inventors isolated dorsal skin from P4 to P6 neonates of En1^Cre; R26^mTmG mouse lines. Cre positive neonates from this double transgenic mouse line were detected by green fluorescent signal in dorsal skin with a Leica M205 FA stereo microscope. Matrigel was prepared by diluting the stock aliquots with DMEM/F12 medium to a concentration of 6 mg/ml. Then 150 μl prepared gel was added in the center of a 35 mm cell culture dish (Ibidi). 4 mm biopsies were made from the dorsal skin and fascia tissues were then isolated from the dorsal skin tissues. Isolated fascia tissues were then embedded into the gel and were allowed to be solidified for one hour at 37° C. Then the tissue-gel system was maintained in DMEM/F12 medium (Life Technologies) supplemented with 10% FBS (Life Technologies), 1% non-essential amino acid (Thermo Fisher), 1% Glutamax (Thermo Fisher), 1% penicillin and streptomycin (Thermo Fisher) in a 37° C. incubator supplied with 95% O2 and 5% CO2. Medium was changed every other day until day 4 when tissues were collected and fixed. For fixation with Matrigel system, tissues were fixed in 2% paraformaldehyde (VWR) with 0.1% glutaraldehyde (Sigma) for 1 hour and then washed three times with phosphate buffered saline (PBS, Life Technologies) and stored in PBS at 4° C.
Fascia tissues were recorded everyday by a brightfield microscope to check the invasion and contraction state of the tissues. The invasion index was calculated with the following formula: Invasion index=(SD4−SD0)/SD0
SD4 and SD0 represent tissue size (including the migrated area) on Day 4 and Day 0, respectively. The contraction index was calculated with the following formula: Contraction index=(TD0−TD4)/TD0
TD4 and TD0 represent original tissue size (excluding the migrated area) on Day 4 and Day 0 respectively.
The Inventors isolated fascia from back-skin of En1^Cre; R26^mTmG double-transgenic mice, separately incubated whole fascia explants with 26 small molecules, and measured the invasion index (Si)=(SD4−SD0)/SD0 (see Methods) as a proxy measure of sprouting and reticulation.

[6] = inhibitors 10 μM i.p. 2 hours before surgery, organs harvested after 24 h, FITC in wound lysates

Structure (SMILES)	ECM (matrix) movement, liver [1, 6]	effect on ECM movement towards the site of injury (phenotype) [2]	ECM (matrix) movement, peritoneum [3]	also measured
CN(C(=O)c1cc2ccccc2cc1C(=O)C(c1cccc2ccccc12)P(=O)(O)O)C1CCN(C(=O)c2ccccc2)CC1 (stereo not shown) [Cath-G inhibitor]	decreased	anti-fibrotic phenotypes		effect on ECM movement towards the site of injury (phenotype) ([2]; listed as cathepsin G inhibitors): inhibit ECM movement
CC(C)C[C@H](NC(=O)N[C@H](C(=O)N[C@@H](CCC(N)=O)C(=O)N[C@@H](C)C=O)[C@@H]1CCNC(=N)N1)C(=O)O [Elastatinal]	increased		increased	effect on ECM movement towards the site of injury (phenotype) ([2]; listed as Elastial): pro-fibrotic phenotype; effect on ECM movement towards the site of injury (phenotype) ([2]; listed as elastial): promote ECM movement
O=C(O)C1(c2ccc3c(c2)OC[C@H](Cc2ccc(-c4ccccc4)cc2)[C@H]3O)CCCC1 [CP-105696]		anti-fibrotic phenotype		
COC(=O)c1ccc2c(c1)NC(=O)/C2=C(\Nc1ccc(N(C)C(=O)CN2CCN(C)CC2)cc1)c1ccccc1 [Nintedanib]				inward translocations (movements) of fluid matrix ([4]; Nintedanib 10 μM i.p. 1 hour before bleomycin and repeatedly, 14 days): completely abrogated; activation of lung interstitial fibroblasts into myofibroblasts ([4]; two weeks after bleomycin): refrained from activating into pathologic YAP/TAZ-positive myofibroblasts; matrix on lung surfaces (pleural matrix pools): structures and fluorescence intensity ([4]; two weeks after bleomycin): maintained the same structures and fluorescence intensity; also recorded: rescues pleural matrix pools; fibrotic developments along lung airways and bronchioles ([4]; two weeks after bleomycin, histology): very minimal signs of fibrotic developments
CCc1cc(C(C)=O)c(O)cc1OCCCCCC(C)(C)c1nn[nH]n1 [LY255283]		anti-fibrotic phenotypes; also recorded: inhibit ECM movement		
COC(=O)[C@@H](N)CCCNC(=N)N[N+](=O)[O-] [L-Name]		anti-fibrotic phenotype		
CC(=N)NCc1cccc(CN)c1 [Prestw 1400W, 1400W]		anti-fibrotic phenotypes		effect on ECM movement towards the site of injury (phenotype) ([2]; listed as W1400): inhibit ECM movement
COC(=O)CCC(=O)N[C@@H](C)C(=O)N[C@@H](C)C(=O)N1CCC[C@H]1C(=O)N[C@@H](C)C(=O)CCl [elastase inhibitor II] (HELM PEPTIDE1{[COC(=O)CCC(=O)[*:2]].A.A.P.A.[ClC[*:1]]}$$$$V2.0)	increased		increased	
CNC(=O)[C@H](Cc1c[nH]c2ccccc12)NC(=O)[C@@H](CC(=O)NO)CC(C)C [GM6001]		anti-fibrotic phenotypes; also recorded: inhibit ECM movement	decreased	potency among the protease inhibitors on matrix currents ([1]; livers and peritoneas): most potent; ECM (matrix) movement, liver ([1]; mouse, in vivo, ip): decreased
O=c1c(O)c(-c2ccc(O)c(O)c2)oc2cc(O)cc(O)c12 [Quercetin]	decreased		decreased	
COC(=O)Nc1nc2ccc(Sc3ccccc3)cc2[nH]1 [Fenbendazole]				toxic effects to fascia tissues [5]: toxic effects

Reference: US20220334101A1, “MODULATING EXTRACELLULAR MATRIX MOVEMENT” (Helmholtz Zentrum Muenchen - Deutsches Forschungszentrum …, priority 2019, published 2022)
